Assay [1] deals with Rb phosphorylation (serines 807 and 811). The assay can be described thus: Western blot of Rb phosphorylation, A549 cells. It is filed as cell-based, human. Particulars: cells treated 18 hours, western blotting. The text has this: Lysate preparation, pmmunoprecipitation, and pestern plotting.
In assay [2] the target is T1, Rb:Raf-1 binding (Homo sapiens, UniProt P04049+P06400).
T1 construct: a glutathione S-transferase (GST) Raf-1 (1-149aa) overnight at 4° C; made in house
The assay can be described thus: GST-Rb/GST-Raf-1 ELISA. Particulars: for inhibition at 20 µM / % Inhibition at 20 μM: inhibition of Rb:Raf-1 binding, compound at 20 μM; for inhibition at 20 µM: read-out: % Inhibition at 20 μM; for fold less active compared to 3a: IC50 ratio to 3a; for Rb:Raf-1 binding inhibitory activity in words: ELISA. As to the method: In vitro library screening assays. Enzyme Linked ImmunoSorbent Assay (ELISA) 96-well plates were coated with 1 μg/mL of a glutathione S-transferase (GST) Raf-1 (1-149aa) overnight at 4° C. Subsequently the plates were blocked and GST Rb at 20 μg/mL was rotated at room temperature (RT) for 30 minutes in the presence or absence of the compounds at 20 micromolar (μM). GST-Rb +/− compounds were then added to the plate and incubated for 90 minutes (min) at 37° C. The amount of Rb bound to Raf-1 was detected by Rb polyclonal antibody (Santa Cruz Biotechnology, Santa Cruz, Calif.) 1:1000 incubated for 60 min at 37° C. Donkey-anti-rabbit-IgG-HRP (1:10,000) was added to the plate and incubated at 37° C. for 60 minutes. The color was developed with orthophenylenediamine (Sigma, St. Louis, Mo.) and the reaction was terminated with 3 molar (M) H2SO4. Absorbance was read at 490 nanometers (nm). To determine disruption of Rb to E2F1, Phb, or HDAC1 the above protocol was used with the exception of coating GST Rb on the ELISA plate and adding the drugs in the presence or absence of GST E2F1, Phb, or HDAC1. […] Prohibitin monoclonal antibody was used at 1:1000 to detect the amount of Rb bound to Prohibitin. For disruption of MEK-Raf-1 binding ELISAs, Raf-1 1 microgram/milliliter (μg/mL) was coated on the plate and GST-MEK (20 μg/mL) was incubated +/− the compounds for 30 minutes at room temperature. Mek1 polyclonal antibody was used at 1:1000 to detect the binding of Raf-1 to Mek1. The IC50 concentrations for the Rb:Raf-1 inhibitors were determined by plotting with Origin 7.5 software (Origin, Northampton, Mass.).
A screen was developed to identify small molecule inhibitors of the Rb:Raf-1 interaction. A diversity set, comprising 1981 compounds (National Cancer Institute, Bethesda, Md.) was examined using a glutathione S-transferase-retinoblastoma/glutathione S-transferase-Raf-1 kinase Enzyme-Linked ImmunoSorbent Assay screen (GST-Rb/GST-Raf-1 ELISA).

Setting [3] is: values in μM, read-out: IC50, Rb:Raf-1 binding.
Where [4] appears, read: concentration that inhibits the Rb:Raf-1 binding by 50%, triplicate, read-out: IC50 (nM), inhibition of the Rb:Raf-1 binding.

Where two headings read alike, the source gives them in different places.

T1 sequence (P04049 1-149 limits assumed): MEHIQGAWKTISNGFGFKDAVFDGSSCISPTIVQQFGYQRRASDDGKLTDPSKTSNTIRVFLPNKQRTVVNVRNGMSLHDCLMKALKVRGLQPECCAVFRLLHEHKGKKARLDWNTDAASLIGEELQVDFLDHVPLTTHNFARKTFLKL
T1 sequence (P06400 whole entry): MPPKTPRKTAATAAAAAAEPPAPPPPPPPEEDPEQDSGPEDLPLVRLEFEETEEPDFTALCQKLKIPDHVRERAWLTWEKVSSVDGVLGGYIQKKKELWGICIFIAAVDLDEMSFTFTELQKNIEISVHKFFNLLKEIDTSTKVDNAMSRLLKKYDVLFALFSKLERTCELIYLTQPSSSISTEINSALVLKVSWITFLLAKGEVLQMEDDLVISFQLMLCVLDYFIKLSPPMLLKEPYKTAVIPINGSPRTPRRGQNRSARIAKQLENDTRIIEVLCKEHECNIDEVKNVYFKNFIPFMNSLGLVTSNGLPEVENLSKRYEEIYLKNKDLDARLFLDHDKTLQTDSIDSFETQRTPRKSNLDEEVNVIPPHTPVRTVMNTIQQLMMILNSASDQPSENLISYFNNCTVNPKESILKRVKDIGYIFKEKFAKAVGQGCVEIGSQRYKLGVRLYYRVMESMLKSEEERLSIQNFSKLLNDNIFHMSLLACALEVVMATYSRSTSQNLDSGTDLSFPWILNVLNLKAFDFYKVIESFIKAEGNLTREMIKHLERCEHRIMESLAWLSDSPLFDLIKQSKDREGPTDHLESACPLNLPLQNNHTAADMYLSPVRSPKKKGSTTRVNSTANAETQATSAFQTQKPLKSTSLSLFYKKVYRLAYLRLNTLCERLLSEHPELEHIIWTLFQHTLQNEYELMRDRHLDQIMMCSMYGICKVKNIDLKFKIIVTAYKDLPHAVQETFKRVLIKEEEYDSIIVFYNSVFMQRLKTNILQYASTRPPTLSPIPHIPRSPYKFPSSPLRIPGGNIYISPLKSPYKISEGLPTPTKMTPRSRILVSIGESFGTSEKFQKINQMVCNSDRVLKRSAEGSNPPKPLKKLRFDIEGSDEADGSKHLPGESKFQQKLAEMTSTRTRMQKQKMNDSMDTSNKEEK

For the molecule `CNC(=O)c1cc(Oc2ccc(NC(=O)Nc3ccc(Cl)c(C(F)(F)F)c3)cc2)ccn1` [BAY43-9006, sorafenib, reference compound], in assay [1], the Rb phosphorylation result was “did not seem to have any effect on Rb phosphorylation”.
Take `N=C(N)SCc1ccccc1Cl` [Compound 3b, 2-chlorobenzylisothiourea]: the inhibition at 20 µM in assay [2] was found to be 100%. Further, the IC50 in assay [2] (setting [3]) is 0.575 µM.
In the case of `N=C(N)SCc1ccc(Cl)c(F)c1` [Compound 3c], the inhibition at 20 µM in assay [2] was determined as 100%. Besides, in assay [2] (setting [3]), the IC50 worked out at 0.081 µM.
Regarding `Cl.N=C(N)SCc1cccc(Cl)c1Cl` [Compound 3d], in assay [2], the “fold less active compared to 3a” value is listed as “more than 2 fold” and the inhibition at 20 µM turned out to be 100%. Besides, the IC50 in assay [2] (setting [4]) was 0.164 µM.
Regarding `N=C(N)SCc1cccc(Cl)c1` [Compound 3e, 3-chlorobenzylisothiourea], the inhibition at 20 µM in assay [2] was 100%. Besides, in assay [2] (setting [3]), the IC50 came out at 0.23 µM.
For `N=C(N)SCc1ccc(Cl)c(C(F)(F)F)c1` [Compound 3f], the inhibition at 20 µM in assay [2] was 94%. The IC50 in assay [2] (setting [3]) turned out to be 0.312 µM.
As to `N=C(N)SCc1ccc(Cl)cc1` [Compound 3g, 4-chlorobenzylisothiourea], the IC50 in assay [2] (setting [4]) was determined as 0.274 µM. Moreover, the inhibition at 20 µM in assay [2] was found to be 88%.
With `Cl.N=C(N)SCc1ccc(Cl)c(Cl)c1` [Compound 3h], in assay [2], the “fold less active compared to 3a” value worked out at 50 fold and the inhibition at 20 µM was determined as 81%. The 50% inhibitory concentration (IC50) in assay [2] (setting [4]) stood at 3.9 µM.
Turning to `N=C(N)SCc1cc(Cl)ccc1Cl` [Compound 3i], the IC50 in assay [2] (setting [4]) worked out at 2.11 ± 0.18 µM. Also, the inhibition at 20 µM in assay [2] was found to be 79%.
As to `N=C(N)SCc1ccc(C(F)(F)F)cc1C(F)(F)F` [Compound 3j], the inhibition at 20 µM in assay [2] is 53%.
Consider `CC(C)(C)c1ccc(CSC(=N)N)cc1` [Compound 3k], for which the inhibition at 20 µM in assay [2] amounted to 52%.
For the molecule `N=C(N)SCc1ccc2c(c1)OCO2` [Compound 3l], the inhibition at 20 µM in assay [2] was 49%.
Take `N=C(N)SCc1ccc([N+](=O)[O-])cc1` [Compound 3m]: in assay [2], the inhibition at 20 µM was 46%.
Regarding `N=C(N)SCc1ccc(C(F)(F)F)cc1` [Compound 3n], the inhibition at 20 µM in assay [2] was determined as 46%.
On the same count and under the same terms, in the case of `COc1ccc(CSC(=N)N)cc1` [Compound 3o] it was 45%; in that of `Cc1ccc(CSC(=N)N)cc1` [Compound 3p], 44%; in that of `COc1cc(CSC(=N)N)cc(OC)c1OC` [Compound 3q], 20%.
As to `Cl.N=C(N)SCc1ccccc1` [Compound 3r], in assay [2], the “Rb:Raf-1 binding inhibitory activity in words” value is “inactive” and the inhibition at 20 µM is 0%.
As for `Cl.N=C(N)SCc1c(Cl)cccc1Cl` [Compound 3s], in assay [2], the “Rb:Raf-1 binding inhibitory activity in words” value was “inactive” and the inhibition at 20 µM is 0%.
For `Cl.N=C(N)SCc1c(Cl)cc(Cl)cc1Cl` [Compound 3t], in assay [2], the “Rb:Raf-1 binding inhibitory activity in words” value is “inactive” and the inhibition at 20 µM worked out at 0%.
`CC(SC(=N)N)c1ccc(Cl)cc1Cl` (centres unmarked) [Compound 4a]: the IC50 in assay [2] (setting [4]) worked out at 0.322 µM. Moreover, the inhibition at 20 µM in assay [2] was 100%.
As to `CC(SC(=N)N)c1ccc(Cl)c(Cl)c1` (centres unmarked) [Compound 4b], the IC50 in assay [2] (setting [4]) was 0.51 ± 0.116 µM. In addition, in assay [2], the inhibition at 20 µM turned out to be 99%.
Turning to `CCC(SC(=N)N)c1ccc(Cl)cc1Cl` (centres unmarked) [Compound 4c], the IC50 in assay [2] (setting [4]) is 0.567 µM. Further, in assay [2], the inhibition at 20 µM turned out to be 100%.
As for `N=C(N)SC(c1ccccc1)c1ccccc1` [Compound 4d], in assay [2], the inhibition at 20 µM amounted to 21%.
As for `N=C(N)SC(Cc1ccccc1)c1ccc(Cl)cc1Cl` (centres unmarked) [Compound 4e], the inhibition at 20 µM in assay [2] is 32%.
Regarding `N=C(N)SCc1ccc2ccccc2c1Br` [Compound 5a], the IC50 in assay [2] (setting [4]) is 0.08 µM. In assay [2], the inhibition at 20 µM amounted to 100%.
On to `N=C(N)SCc1ccncc1` [Compound 5b], for which the IC50 in assay [2] (setting [4]) was 2.63 ± 0.33 µM. Moreover, the inhibition at 20 µM in assay [2] worked out at 94%.
In the case of `Cl.N=C(N)SCc1ccc(Cl)c2ccccc12` [Compound 5c], the IC50 in assay [2] (IC50 (nM), inhibition of the Rb:Raf-1 binding, concentration that inhibits the Rb:Raf-1 binding by 50%, triplicate) is 1.9 µM. Besides, the “fold reduction of activity relative to 5a” value in assay [2] (IC50 ratio to 5a) was determined as 24 fold. For the same molecule, the “% Inhibition at 20 μM” value in assay [2] is on record as 93%.
On to `N=C(N)SCc1ccc2ccccc2n1` [Compound 5d], for which the inhibition at 20 µM in assay [2] stood at 76%.
For `N=C(N)SCc1ccc2c(c1)C(=O)c1ccccc1C2=O` [Compound 5e], the inhibition at 20 µM in assay [2] was 56%.
The same measure, in the same setting: the value for `N=C(N)SCc1c2ccccc2cc2ccccc12` [Compound 5f] was 22%.
For `N=C(N)NCc1ccc(Cl)cc1` [Compound 6a], in assay [2] (setting [4]), the IC50 came to 0.539 µM. In addition, in assay [2] (20 µM), the “% Inhibition at 20 μM” value worked out at 100%.
In the case of `Cl.N=C(N)NCc1ccc(Cl)cc1` [Compound 6b], the “% Inhibition at 20 μM” value in assay [2] was found to be 61%.
`N=C(N)NCc1ccc(Cl)cc1Cl` [Compound 6c]: the inhibition at 20 µM in assay [2] was 61%.
As for `Cl.N=C(N)NCc1ccccc1Cl` [Compound 6d], in assay [2], the “% Inhibition at 20 μM” value is reported as 59%.
Consider `N=C(N)NCc1ccccc1Cl` [Compound 6e], for which the “% Inhibition at 20 μM” value in assay [2] stood at 25%.
As to `N=C(N)NCc1ccc(Cl)cc1` [Compound 6f], in assay [2] (20 µM), the “% Inhibition at 20 μM” value is listed as 16%.
With `CNc1nc(-c2ccc(F)cc2F)cs1` [Compound 7a], the inhibition at 20 µM in assay [2] worked out at 53%.
Take `Nc1nc(-c2ccc(Cl)cc2Cl)cs1` [Compound 7b]: in assay [2], the inhibition at 20 µM came to 45%.
For `CNc1nc(-c2ccc(F)cc2)cs1` [Compound 7c], the inhibition at 20 µM in assay [2] was 43%.
Turning to `CNc1nc(-c2ccccc2)cs1` [Compound 7d], in assay [2], the inhibition at 20 µM was determined as 39%.
`Nc1nc(-c2ccc(F)cc2F)cs1` [Compound 7e]: in assay [2], the inhibition at 20 µM was determined as 39%.
Consider `CNc1nc(-c2ccc(Cl)cc2)cs1` [Compound 7f], for which, in assay [2], the inhibition at 20 µM amounted to 34%.
Turning to `CNc1nc(-c2ccc(Cl)cc2Cl)cs1` [Compound 7g], the inhibition at 20 µM in assay [2] worked out at 33%.
Regarding `Nc1nc(-c2ccc(F)cc2)cs1` [Compound 7h], the inhibition at 20 µM in assay [2] is 32%.
`Nc1nc(-c2ccc(Cl)cc2)cs1` [Compound 7i]: the inhibition at 20 µM in assay [2] was 29%.
For `Nc1nc(-c2ccccc2)cs1` [Compound 7j], the inhibition at 20 µM in assay [2] turned out to be 22%.
Consider `CNc1scc(-c2ccc(Cl)cc2)[n+]1C` [Compound 8a], for which the inhibition at 20 µM in assay [2] stood at 37%.
Take `CNc1scc(-c2ccccc2)[n+]1C` [Compound 8b]: the inhibition at 20 µM in assay [2] is 22%.
As for `CNc1scc(-c2ccc(F)cc2)[n+]1C` [Compound 8c], the inhibition at 20 µM in assay [2] came out at 19%.
As to `CNc1scc(-c2ccc(F)cc2F)[n+]1C` [Compound 8d], in assay [2], the inhibition at 20 µM worked out at 5%.
Regarding `Clc1ccc(CSc2nnc[nH]2)c(Cl)c1` [Compound 9a], the IC50 in assay [2] (setting [4]) is 0.097 µM. In addition, the inhibition at 20 µM in assay [2] was found to be 92%.
Regarding `Nc1nnc(SCc2ccc(Cl)cc2Cl)[nH]1` [Compound 9b], in assay [2] (setting [4]), the IC50 turned out to be 0.131 µM. Also, in assay [2], the inhibition at 20 µM amounted to 91%.
As for `Clc1ccc(CSc2nnc[nH]2)cc1` [Compound 9c], in assay [2], the inhibition at 20 µM turned out to be 81%.
Same read-out and setting: in the case of `Nc1nnc(SCc2ccc(Cl)cc2)[nH]1` [Compound 9d] it was 76%; in that of `Clc1ccc(CSc2ncc[nH]2)c(Cl)c1` [Compound 9e], 68%; in that of `Clc1ccc(CSc2ncc[nH]2)cc1` [Compound 9f], 67%.
Take `Clc1ccc(CSC2=NCCN2)cc1` [Compound 9g]: in assay [2], the inhibition at 20 µM is 47%.
`Clc1ccc(CSC2=NCCN2)c(Cl)c1` [Compound 9i]: in assay [2], the inhibition at 20 µM came to 45%.
Turning to `Clc1ccc(CSc2nc3ccccc3[nH]2)c(Cl)c1` [Compound 9j], in assay [2], the inhibition at 20 µM was found to be 40%.

The record behind these values is patent US9656953B2, “Inhibition of cell proliferation” (University of South Florida, priority 2005, dated 2017).
